The values that follow come from patent US10321682B2, “Pesticidal aryl pyrrole nitrile compound, preparation method for same, uses thereof, agricultural pesticide, and pest control method” (HENAN GOODDAYS BIOLOGY DEVELOPMENT CO., LTD., priority 2016, dated 2019).

One series deals with rats. The conditions noted are these: cited from earlier work.
Series [1] can be described thus: Acute percutaneous toxicity in rats. The following applies: both sexes, rat, in vivo, topical; both female rats and male rats.
Series [2] is described as follows: Toxicity to Japanese carp. The conditions noted are these: in vivo.
Series [3] can be described thus: Acute oral toxicity in rats. The conditions noted are these: both sexes, rat, in vivo, both female rats and male rats.

≈ marks a conversion by molar mass, not a printed value. Where two headings read alike, the source gives them in different places.

As to `CCOCn1c(-c2ccc(Cl)cc2)c(C#N)c(Br)c1C(F)(F)F` [Chujin, 4-bromo-2-(4-chlorophenyl)-1-ethoxymethyl-5-trifluoromethylpyrrole-3-carbonitrile], the “acute oral LD50” value with rats (female rats) is reported as 459 mg/kg; in the series with rats (male rats), 223 mg/kg.
In general, LD50 refers to the dose expected to kill half of the subjects tested. Higher therefore signals lower toxicity. The term LC50 denotes the concentration lethal to half of the exposed cells or organisms. Read a low LC50 as a more lethal substance. On to `N#Cc1c(Br)c(C(F)(F)F)n(Cc2cnc(Cl)s2)c1-c1ccc(Cl)cc1` [4-bromo-2-(4-chlorophenyl)-1-(2-chloro-5-thiazolylmethyl)-5-trifluoromethylpyrrole-3-carbonitrile], for which the LD50 was more than 2000 mg/kg in series [1] and more than 5000 mg/kg in series [3]. This compound had a median lethal concentration (LC50) in series [2] of 2.5 µg/mL (≈ 5.2 µM).
